Values of other authors in US5932763A, “Inhibition of matrix metalloproteases by 2-(ω-arolalkyl)-4-biaryl-4-oxobutyric acids” (Bayer Corporation, priority 1997, dated 1999).

Tests used:
[1] = Child, et al., J. Pharm. Sci., 66, 466, 1977
[2] = system: human ovarian carcinoma xenografts; conditions: mouse, in vivo
human colon tumor = conditions: given intraperitoneally; orthotopic model in nude mice

SMILES: O=C(O)CC(C(=O)c1ccc(-c2ccccc2)cc1)c1ccccc1 (centres unmarked) [LXXVII]
- activity of fenbufen analogs (described as inactive) [1]: inactive

SMILES: O=C(CC(C(=O)O)c1ccccc1)c1ccc(-c2ccccc2)cc1 (centres unmarked) [XLIX]
- activity of fenbufen analogs (described as inactive) [1]: inactive

SMILES: CC(CC(=O)c1ccc(-c2ccccc2)cc1)C(=O)O (centres unmarked) [XLVII]
- activity of fenbufen analogs (described as inactive) [1]: inactive

SMILES: CNC(=O)[C@H](Cc1ccccc1)NC(=O)[C@H](CC(C)C)[C@H](CSc1cccs1)C(=O)NO [batimastat]
- survival of mice bearing human ovarian carcinoma xenografts [2]: prolongs the survival
- human colon tumor growth and spread (human colon tumor): inhibits human colon tumor growth and spread
